Measurements published in ChEMBL document CHEMBL5506031, “Design, Synthesis, Bioactive Evaluation, and Molecular Dynamics Simulation of Novel 4H-Pyrano[3,2-c]pyridine Analogues as Potential Sterol 14α-Demethylase (CYP51) Inhibitors” (J Med Chem, 2024).
In brackets after ≈: the same amount, converted by molar mass. Activity calls are given as the source filed them. The rule behind the calls is not given here.

Legend:
Candida albicans = experiment: Antifungal activity against Candida albicans; format: functional
Alternaria alternata = experiment: Antifungal activity against Alternaria alternata assessed as fungal inhibition rate at 100 ug/ml relative to control; format: functional
Alternaria solani = experiment: Antifungal activity against Alternaria solani assessed as fungal inhibition rate at 100 ug/ml relative to control; format: functional
Botrytis cinerea [1] = experiment: Inhibition of Botrytis cinerea CYP51 by fluorescent quenching analysis; details: dose <= 16.0 µg/ml
Botrytis cinerea [2] = experiment: Fungicidal activity against Botrytis cinerea assessed as fungal growth reduction; format: functional, organism-based
[3] = Inhibition of Botrytis cinerea CYP51 by ELISA
Botrytis cinerea [4] = experiment: Induction of morphological changes in Botrytis cinerea assessed as thin cell wall at 0.5 ug/ml incubated for 6 days by TEM analysis; format: functional, organism-based; details: dose 0.5 µg/ml, time 6.0 day
Penicillium digitatum = experiment: Fungicidal activity against Penicillium digitatum assessed as fungal inhibitory rate at 16 ug/ml relative to control; format: functional
Botrytis cinerea [5] = experiment: Induction of morphological changes in Botrytis cinerea assessed as cracked cell structure at 0.5 ug/ml incubated for 6 days by TEM analysis; format: functional, organism-based; details: dose 0.5 µg/ml, time 6.0 day
Botrytis cinerea [6] = experiment: Induction of morphological changes in Botrytis cinerea assessed as irregular mycelia at 0.5 ug/ml incubated for 6 days by SEM analysis; format: functional, organism-based; details: dose 0.5 µg/ml, time 6.0 day
Sclerotinia sclerotiorum = experiment: Fungicidal activity against Sclerotinia sclerotiorum assessed as fungal inhibitory rate at 16 ug/ml relative to control; format: functional
Botrytis cinerea [7] = experiment: Induction of morphological changes in Botrytis cinerea assessed as tangled mycelia at 0.5 ug/ml incubated for 6 days by SEM analysis; format: functional, organism-based; details: dose 0.5 µg/ml, time 6.0 day
Fusarium oxysporum = experiment: Fungicidal activity against Fusarium oxysporum assessed as fungal inhibitory rate at 16 ug/ml relative to control; format: functional
Botrytis cinerea [8] = experiment: Fungicidal activity against Botrytis cinerea assessed as fungal inhibitory rate at 16 ug/ml relative to control; format: functional
Botrytis cinerea [9] = experiment: Induction of morphological changes in Botrytis cinerea assessed as thin cell membrane at 0.5 ug/ml incubated for 6 days by TEM analysis; format: functional, organism-based; details: dose 0.5 µg/ml, time 6.0 day
Botrytis cinerea [10] = experiment: Induction of morphological changes in Botrytis cinerea assessed as crinkly mycelia at 0.5 ug/ml incubated for 6 days by SEM analysis; format: functional, organism-based; details: dose 0.5 µg/ml, time 6.0 day
Colletotrichum lagenaria = experiment: Fungicidal activity against Colletotrichum lagenarium assessed as fungal inhibitory rate at 16 ug/ml relative to control; format: functional
Botrytis cinerea [11] = experiment: Induction of morphological changes in Botrytis cinerea assessed as uneven mycelia at 0.5 ug/ml incubated for 6 days by SEM analysis; format: functional, organism-based; details: dose 0.5 µg/ml, time 6.0 day
Aspergillus niger = experiment: Antifungal activity against Aspergillus niger; format: functional
Aspergillus flavus = experiment: Antifungal activity against Aspergillus flavus; format: functional

SMILES: COc1ccc(NC(=O)c2cc3c(CO)cnc(C)c3o/c2=N\c2ccc(Cl)c(C)c2)cc1
- MIC (Candida albicans): 12.5 µg/mL (≈ 26.9 µM)

SMILES: CCCC(Br)C(=O)Oc1ccc2c(c1)oc(=O)c1c(C)c(C(=O)OCC)c(C)nc12 (stereo not drawn)
- inhibition at 100 µg/mL (Alternaria alternata): 44.6%
- inhibition at 100 µg/mL (Alternaria solani): 40.7%

SMILES: Cc1cc(C)c2c(=O)oc3cc(OC(=O)C(C)Br)ccc3c2n1 (stereo not drawn)
- inhibition at 100 µg/mL (Alternaria alternata): 41.6%
- inhibition at 100 µg/mL (Alternaria solani): 52.4%

SMILES: Fc1ccc([C@@]2(Cn3cncn3)O[C@@H]2c2ccccc2Cl)cc1
- inhibition (Botrytis cinerea [1]): Dose-Dependent Effect
- EC50 (Botrytis cinerea [2]): 0.67 µg/mL (≈ 2.03 µM)
- IC50 [3]: 0.802 µg/mL (≈ 2.43 µM)
- Activity (Botrytis cinerea [4]): Active
- inhibition at 16 µg/mL (Penicillium digitatum): 78.6%
- Activity (Botrytis cinerea [5]): Active
- Activity (Botrytis cinerea [6]): Active
- inhibition at 16 µg/mL (Sclerotinia sclerotiorum): 100%
- Activity (Botrytis cinerea [7]): Active
- inhibition at 16 µg/mL (Fusarium oxysporum): 87.3%
- inhibition at 16 µg/mL (Botrytis cinerea [8]): 100%
- Activity (Botrytis cinerea [9]): Active
- Activity (Botrytis cinerea [10]): Active
- inhibition at 16 µg/mL (Colletotrichum lagenaria): 94.3%
- Activity (Botrytis cinerea [11]): Active

SMILES: COC(=O)C1=C(N)OC2=C(CN(C(=O)c3ccco3)C/C2=C\c2ccc(Br)o2)C1c1ccc(Br)o1 (stereo not drawn)
- inhibition (Botrytis cinerea [1]): Dose-Dependent Effect
- EC50 (Botrytis cinerea [2]): 0.53 µg/mL (≈ 0.874 µM)
- IC50 [3]: 0.611 µg/mL (≈ 1.01 µM)
- Activity (Botrytis cinerea [4]): Active
- inhibition at 16 µg/mL (Penicillium digitatum): 76%
- Activity (Botrytis cinerea [5]): Active
- Activity (Botrytis cinerea [6]): Active
- inhibition at 16 µg/mL (Sclerotinia sclerotiorum): 82.7%
- Activity (Botrytis cinerea [7]): Active
- inhibition at 16 µg/mL (Fusarium oxysporum): 83.5%
- inhibition at 16 µg/mL (Botrytis cinerea [8]): 100%
- Activity (Botrytis cinerea [9]): Active
- Activity (Botrytis cinerea [10]): Active
- inhibition at 16 µg/mL (Colletotrichum lagenaria): 84.9%
- Activity (Botrytis cinerea [11]): Active

SMILES: CC1(C)CC(=O)C2=C(C1)OC(N)=C(C#N)C2c1ccco1 (stereo not drawn)
- MIC (Aspergillus niger): 12.5 µg/mL (≈ 44 µM)
- MIC (Candida albicans): 12.5 µg/mL (≈ 44 µM)

SMILES: COC(=O)C1=C(C)OC(N)=C(C#N)C1c1ccc(F)cc1 (stereo not drawn)
- MIC (Candida albicans): 12.5 µg/mL (≈ 43.4 µM)
- MIC (Aspergillus flavus): 12.5 µg/mL (≈ 43.4 µM)

SMILES: CC1(C)CC(=O)C2=C(C1)OC(N)=C(C#N)C2c1ccc(F)cc1 (stereo not drawn)
- MIC (Aspergillus niger): 12.5 µg/mL (≈ 40 µM)
- MIC (Aspergillus flavus): 12.5 µg/mL (≈ 40 µM)

SMILES: CCOC(=O)c1c(C)nc2c(c1C)c(=O)oc1c(OC(=O)C(Br)CC)cccc12 (stereo not drawn)
- inhibition at 100 µg/mL (Alternaria alternata): 62.1%
- inhibition at 100 µg/mL (Alternaria solani): 54.6%
